Test results: patent US20100119599A1 (ARCHER PHARMACEUTICALS, INC., priority 2006, published 2010)

Legend:
Aβ1-40 = experiment: Measurement of Aβ1-40 in culture medium of 7W WT APP751 CHO cells by ELISA; format: cell-based, Chinese hamster; conditions: for activity at 5 µM: Cricetulus griseus, Table 1, 5 μM test compound, CHO cells stably transfected with human APP751, culture medium, ELISA, control DMSO, 0 = no detectable amount; for Aβ1-40 (% of control): CHO cells that overexpress APP751, zero = below the detection limit of the assay
Protocol: (§1) Chinese hamster ovary (CHO) cells, stably transfected with human APP751 (7W WT APP751 CHO cells) were used. See, e.g., Koo and Squazzo, J. Biol. Chem., 269(26): 17386-17389, 1994. The cells were maintained in DMEM medium supplemented with 10% fetal bovine serum and 1× mixture of penicillin/streptomycin/fungizone/glutamine mixture (Cambrex, Md.) geneticin as selecting agent in 75 cm^2 cell culture flasks. The 7W WT APP751 CHO cells were plated in 96-well cell culture plates in quadruplicate, containing 200 microliters of culture medium, for 18 hours at 37° C. and 5% CO2. All test compounds were placed in dimethyl sulfoxide (DMSO) before being added to the cultured confluent 7W WT APP751 CHO cells to a concentration of the test compound of 5 μM. The culture medium was collected and diluted before being assayed by ELISAs for Aβ1-40 at 10-fold dilution and Aβ1-42 at 2-fold dilution, respectively. Concentrations of Aβ1-40 and Aβ1-42, expressed in pg/ml, were determined using commercially available ELISAs (Biosource, Calif.) in a colorimetric assay using labeled antibodies detected spectrophotometrically. For compounds with an identification beginning “RI”, the compounds were tested at a concentration of 10 μM for 24 hours. Control cells were treated with DMSO containing no compound. The percentage reduction in levels of Aβ1-40 and Aβ1-42 as compared to control cells not exposed to the test compounds are reported for the compounds in Tables 1, 2, and 3, supra. An entry of “0” indicates no detectable amount of Aβ1-40 or Aβ1-42 according to the assay conditions. The data in Tables 1, 2, and 3 may be rounded to the nearest 0.1%.

Aβ1-42 = experiment: Measurement of Aβ1-42 in culture medium of 7W WT APP751 CHO cells by ELISA; format: cell-based, Chinese hamster; conditions: for activity at 5 µM: Cricetulus griseus, Table 1, 5 μM test compound, CHO cells stably transfected with human APP751, culture medium, ELISA, control DMSO, 0 = no detectable amount, read-out: Aβ1-42 (% of control); for Aβ1-42 (% of control): CHO cells that overexpress APP751, zero = below the detection limit of the assay
Protocol: as §1
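Further: 5 µM test compound but RI-coded compounds at 10 µM for 24 hours.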

Row | SMILES | activity at 5 µM (Aβ1-40) | activity at 5 µM (Aβ1-42) | Aβ1-40 (% of control) (Aβ1-40) | Aβ1-42 (% of control) (Aβ1-42)
1 | Cc1ccccc1N1C2=C(C(=O)CC(C)(C)C2)C(c2ccccc2)C2=C1c1ccccc1C2=O (stereo not shown) [ST024318, 3,3-dimethyl-5-(2-methylphenyl)-11-phenyl-2,3,4,5,11-pentahydroindeno[3,2-b]quinoline-1,10-dione] | 64.9% | 99.5% |  | 
2 | CCCCCOC(=O)C1=C(C)NC2=C(C(=O)CC(C)(C)C2)C1c1ccccc1Br (stereo not shown) [ST216079, pentyl 4-(2-bromophenyl)-2,7,7-trimethyl-5-oxo-1,4,6,7,8-pentahydroquinoline-3-carboxylate] | 25.8% | 20.5% |  | 
3 | CC1=C(C(=O)Nc2ccc(Cl)cc2)C(c2ccsc2)C(C#N)=C(SCC(=O)Nc2cccc(C)c2)N1 (stereo not shown) [RI_14] |  |  | 56.3 % of control | 64.1 % of control
4 | CC1=C(C(=O)OCCc2ccccc2)C(c2ccccc2C(F)(F)F)C2=C(CCCC2=O)N1 (stereo not shown) [ST052228, 2-phenylethyl 2-methyl-5-oxo-4-[2-(trifluoromethyl)phenyl]-1,4,6,7,8-pentahydroquinoline-3-carboxylate] | 60.4% | 36.9% |  | 
5 | CC1=C(C(=O)OCCc2ccccc2)C(c2ccccc2Cl)C2=C(CC(C)(C)CC2=O)N1 (stereo not shown) [ST015085, 2-phenylethyl 4-(2-chlorophenyl)-2,7,7-trimethyl-5-oxo-1,4,6,7,8-pentahydroquinoline-3-carboxylate] | 69.9% | 72.9% |  | 
6 | CCc1cccc(NC(=O)CSC2=C(C#N)C(c3cccs3)C(C(=O)Nc3ccccc3)=C(C)N2)c1 (stereo not shown) [RI_45] |  |  | 82.7 % of control | 61.3 % of control
7 | CC1=C(C(=O)OCCc2ccccc2)C(c2ccccc2Br)C2=C(CC(c3ccccc3)CC2=O)N1 (stereo not shown) [ST015234, 2-phenylethyl 4-(2-bromophenyl)-2-methyl-5-oxo-7-phenyl-1,4,6,7,8-pentahydroquinoline-3-carboxylate] | 51.8% | 54.8% |  | 
8 | COc1ccc(NC(=O)CSC2=C(C#N)C(c3ccsc3)C(C(=O)Nc3ccccc3)=C(C)N2)cc1 (stereo not shown) [RI_59] |  |  | 27.7 % of control | 30.6 % of control
9 | CC1=C(C(=O)OCc2ccccc2)C(c2cccs2)C2=C(CCCC2=O)N1 (stereo not shown) [ST017233, phenylmethyl 2-methyl-5-oxo-4-(2-thienyl)-1,4,6,7,8-pentahydroquinoline-3-carboxylate] | 60.9% | 27.4% |  | 
10 | CC1=C(C(=O)OC2CCCCC2)C(c2ccc(Cl)cc2)C2=C(CC(c3ccccc3)CC2=O)N1 (stereo not shown) [ST013352, cyclohexyl 4-(4-chlorophenyl)-2-methyl-5-oxo-7-phenyl-1,4,6,7,8-pentahydroquinoline-3-carboxylate] | 22.4% | 84% |  | 
11 | COc1ccc(C2CC(=O)C3=C(C2)NC(C)=C(C(=O)OCc2ccccc2)C3c2ccc3c(c2)OCO3)cc1 (stereo not shown) [ST017133, phenylmethyl 4-(2H-benzo[3,4-d]1,3-dioxolen-5-yl)-7-(4-methoxyphenyl)-2-methyl-5-oxo-1,4,6,7,8-pentahydroquinoline-3-carboxylate] | 39.2% | 79.2% |  | 
12 | COC(=O)C1=C(C)NC2=C(C(=O)CC(c3ccccc3)C2)C1c1ccc(O)c(OC)c1 (stereo not shown) [ST013115, methyl 4-(4-hydroxy-3-methoxyphenyl)-2-methyl-5-oxo-7-phenyl-1,4,6,7,8-pentahydroquinoline-3-carboxylate] | 94.7% | 65.7% |  | 
13 | COc1cc(C2C(C(=O)OC3CCCCC3)=C(C)NC3=C2C(=O)CC(c2ccccc2)C3)ccc1O (stereo not shown) [ST013387, cyclohexyl 4-(4-hydroxy-3-methoxyphenyl)-2-methyl-5-oxo-7-phenyl-1,4,6,7,8-pentahydroquinoline-3-carboxylate] | 40% | 26.4% |  | 
14 | CC1=C(C(=O)Nc2ccccc2)C(c2ccsc2)C(C#N)=C(SCC(=O)Nc2ccccc2C)N1 (stereo not shown) [RI_48] |  |  | 86.5 % of control | 100 % of control
